Read-outs that look alike come from different tables or passages of the source.
Legend:
Type in all cases: binding
[1] = molecular target: T1, HeLa cell extract proteins (Homo sapiens, UniProt O14818)
T1 construct: endogenous in cells; host or cells: HeLa cell extract
T1 sequence (O14818 1-248): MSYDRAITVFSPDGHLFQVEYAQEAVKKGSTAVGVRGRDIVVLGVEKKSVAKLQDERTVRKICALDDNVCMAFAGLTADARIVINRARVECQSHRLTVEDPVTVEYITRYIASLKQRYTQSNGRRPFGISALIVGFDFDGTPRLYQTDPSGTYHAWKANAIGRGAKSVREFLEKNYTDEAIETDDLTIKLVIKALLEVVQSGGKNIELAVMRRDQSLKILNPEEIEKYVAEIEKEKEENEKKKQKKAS

[2] = molecular target: T2, HeLa cell extract proteins (Homo sapiens, UniProt Q96P70)
T2 construct: endogenous in cells; host or cells: HeLa cell extract
T2 sequence (Q96P70 whole entry): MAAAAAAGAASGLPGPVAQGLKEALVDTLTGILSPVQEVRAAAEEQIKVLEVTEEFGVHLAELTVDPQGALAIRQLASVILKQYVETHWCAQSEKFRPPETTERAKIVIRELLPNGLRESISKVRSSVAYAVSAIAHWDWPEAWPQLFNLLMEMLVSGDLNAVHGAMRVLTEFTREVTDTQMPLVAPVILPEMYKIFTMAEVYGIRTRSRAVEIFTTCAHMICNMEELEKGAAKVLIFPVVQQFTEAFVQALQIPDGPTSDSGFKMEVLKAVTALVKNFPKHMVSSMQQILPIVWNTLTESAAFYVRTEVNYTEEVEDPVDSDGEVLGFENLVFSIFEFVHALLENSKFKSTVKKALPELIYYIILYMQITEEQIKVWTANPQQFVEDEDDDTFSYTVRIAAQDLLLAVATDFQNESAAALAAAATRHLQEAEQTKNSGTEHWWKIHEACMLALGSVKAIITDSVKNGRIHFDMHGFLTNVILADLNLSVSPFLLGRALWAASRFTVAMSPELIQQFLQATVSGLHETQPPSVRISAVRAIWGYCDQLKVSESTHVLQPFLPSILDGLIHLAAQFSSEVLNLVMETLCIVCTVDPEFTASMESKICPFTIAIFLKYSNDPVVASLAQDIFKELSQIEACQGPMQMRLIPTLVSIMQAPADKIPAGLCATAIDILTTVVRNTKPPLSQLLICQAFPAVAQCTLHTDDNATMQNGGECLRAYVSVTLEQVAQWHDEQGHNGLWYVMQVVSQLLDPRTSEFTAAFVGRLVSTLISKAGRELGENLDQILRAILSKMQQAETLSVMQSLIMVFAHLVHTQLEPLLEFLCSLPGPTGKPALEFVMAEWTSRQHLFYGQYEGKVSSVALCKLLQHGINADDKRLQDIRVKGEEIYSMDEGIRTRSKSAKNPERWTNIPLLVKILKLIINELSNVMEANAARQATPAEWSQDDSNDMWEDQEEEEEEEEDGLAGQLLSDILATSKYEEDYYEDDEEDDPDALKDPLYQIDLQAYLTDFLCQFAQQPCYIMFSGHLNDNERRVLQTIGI

[3] = molecular target: T3, HeLa cell extract proteins (Homo sapiens, UniProt P31943)
T3 construct: endogenous in cells; host or cells: HeLa cell extract
T3 sequence (P31943 1-449): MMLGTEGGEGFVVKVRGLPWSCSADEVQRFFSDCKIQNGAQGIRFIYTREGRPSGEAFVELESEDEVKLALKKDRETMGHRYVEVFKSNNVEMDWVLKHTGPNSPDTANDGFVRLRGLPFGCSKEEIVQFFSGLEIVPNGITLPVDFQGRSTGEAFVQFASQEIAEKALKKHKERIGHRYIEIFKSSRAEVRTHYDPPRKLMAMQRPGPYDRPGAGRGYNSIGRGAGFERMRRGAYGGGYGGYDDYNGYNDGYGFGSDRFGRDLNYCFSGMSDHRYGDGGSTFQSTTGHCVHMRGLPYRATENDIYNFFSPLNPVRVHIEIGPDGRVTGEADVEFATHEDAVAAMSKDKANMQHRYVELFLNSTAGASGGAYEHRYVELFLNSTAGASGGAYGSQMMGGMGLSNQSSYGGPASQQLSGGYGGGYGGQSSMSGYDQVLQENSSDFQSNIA

[4] = molecular target: T4, HeLa cell extract proteins (Homo sapiens, UniProt P15311)
T4 construct: endogenous in cells; host or cells: HeLa cell extract
T4 sequence (P15311 whole entry): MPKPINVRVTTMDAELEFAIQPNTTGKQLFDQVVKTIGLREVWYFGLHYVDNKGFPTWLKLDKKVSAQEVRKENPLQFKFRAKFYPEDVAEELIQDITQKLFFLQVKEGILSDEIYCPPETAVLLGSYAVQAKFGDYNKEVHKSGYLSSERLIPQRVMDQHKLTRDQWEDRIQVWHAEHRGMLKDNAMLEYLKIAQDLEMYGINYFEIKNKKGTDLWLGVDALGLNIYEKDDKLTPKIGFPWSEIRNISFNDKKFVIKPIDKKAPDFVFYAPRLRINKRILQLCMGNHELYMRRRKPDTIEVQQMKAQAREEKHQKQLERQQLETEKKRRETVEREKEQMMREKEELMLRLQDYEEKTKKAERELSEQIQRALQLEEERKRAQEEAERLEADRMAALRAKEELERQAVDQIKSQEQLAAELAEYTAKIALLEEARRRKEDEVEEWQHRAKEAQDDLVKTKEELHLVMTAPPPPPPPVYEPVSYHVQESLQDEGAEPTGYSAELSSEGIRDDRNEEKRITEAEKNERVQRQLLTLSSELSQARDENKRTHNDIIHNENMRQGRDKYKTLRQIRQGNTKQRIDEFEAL

[5] = molecular target: T5, HeLa cell extract proteins (Homo sapiens, UniProt Q08380)
T5 construct: endogenous in cells; host or cells: HeLa cell extract
T5 sequence (Q08380 19-585): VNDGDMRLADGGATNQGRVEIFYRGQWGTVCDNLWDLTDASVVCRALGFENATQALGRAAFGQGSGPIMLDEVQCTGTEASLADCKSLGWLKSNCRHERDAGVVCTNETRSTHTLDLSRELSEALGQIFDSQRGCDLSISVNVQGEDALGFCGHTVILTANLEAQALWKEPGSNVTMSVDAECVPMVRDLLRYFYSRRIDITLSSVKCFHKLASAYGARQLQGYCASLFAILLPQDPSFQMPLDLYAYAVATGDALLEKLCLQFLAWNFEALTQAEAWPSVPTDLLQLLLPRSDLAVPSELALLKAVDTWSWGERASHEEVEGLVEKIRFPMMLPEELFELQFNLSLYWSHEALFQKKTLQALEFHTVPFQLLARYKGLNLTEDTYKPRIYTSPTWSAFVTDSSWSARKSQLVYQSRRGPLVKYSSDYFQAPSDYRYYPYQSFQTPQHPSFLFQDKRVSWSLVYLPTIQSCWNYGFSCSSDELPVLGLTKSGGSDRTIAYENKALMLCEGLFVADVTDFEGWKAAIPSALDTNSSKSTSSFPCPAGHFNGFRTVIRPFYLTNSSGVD

[6] = molecular target: T6, HeLa cell extract proteins (Homo sapiens, UniProt P06744)
T6 construct: endogenous in cells; host or cells: HeLa cell extract

[7] = molecular target: T7, HeLa cell extract proteins (Homo sapiens, UniProt Q96CN7)
T7 construct: endogenous in cells; host or cells: HeLa cell extract
T7 sequence (Q96CN7 1-298): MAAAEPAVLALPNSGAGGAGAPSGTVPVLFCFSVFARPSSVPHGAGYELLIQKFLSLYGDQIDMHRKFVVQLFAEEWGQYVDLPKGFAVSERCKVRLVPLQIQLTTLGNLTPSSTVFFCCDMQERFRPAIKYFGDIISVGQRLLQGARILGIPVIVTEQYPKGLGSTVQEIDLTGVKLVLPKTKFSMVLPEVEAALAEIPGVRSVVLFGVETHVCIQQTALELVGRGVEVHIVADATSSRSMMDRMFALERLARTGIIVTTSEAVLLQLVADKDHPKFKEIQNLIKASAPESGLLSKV

[8] = molecular target: T8, HeLa cell extract proteins (Homo sapiens, UniProt P13073)
T8 construct: endogenous in cells; host or cells: HeLa cell extract
T8 sequence (P13073 23-169): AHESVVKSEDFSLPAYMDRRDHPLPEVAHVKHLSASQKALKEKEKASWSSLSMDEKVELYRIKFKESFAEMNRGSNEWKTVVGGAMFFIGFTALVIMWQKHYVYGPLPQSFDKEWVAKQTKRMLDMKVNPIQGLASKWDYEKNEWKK

[9] = molecular target: T9, HeLa cell extract proteins (Homo sapiens, UniProt P08865)
T9 construct: endogenous in cells; host or cells: HeLa cell extract

[10] = molecular target: T10, HeLa cell extract proteins (Homo sapiens, UniProt P61457)
T10 construct: endogenous in cells; host or cells: HeLa cell extract
T10 sequence (P61457 1-104): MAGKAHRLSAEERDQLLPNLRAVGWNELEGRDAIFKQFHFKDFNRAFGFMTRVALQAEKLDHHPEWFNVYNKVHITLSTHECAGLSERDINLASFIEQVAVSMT

[11] = molecular target: T11, HeLa cell extract proteins (Homo sapiens, UniProt P23528)
T11 construct: endogenous in cells; host or cells: HeLa cell extract
T11 sequence (P23528 whole entry): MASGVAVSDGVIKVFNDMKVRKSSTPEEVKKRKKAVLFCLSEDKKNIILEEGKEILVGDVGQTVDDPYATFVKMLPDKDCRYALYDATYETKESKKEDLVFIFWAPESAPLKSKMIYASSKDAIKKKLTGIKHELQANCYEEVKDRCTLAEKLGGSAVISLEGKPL

[12] = molecular target: T12, HeLa cell extract proteins (Homo sapiens, UniProt Q14974)
T12 construct: endogenous in cells; host or cells: HeLa cell extract
T12 sequence (Q14974 whole entry): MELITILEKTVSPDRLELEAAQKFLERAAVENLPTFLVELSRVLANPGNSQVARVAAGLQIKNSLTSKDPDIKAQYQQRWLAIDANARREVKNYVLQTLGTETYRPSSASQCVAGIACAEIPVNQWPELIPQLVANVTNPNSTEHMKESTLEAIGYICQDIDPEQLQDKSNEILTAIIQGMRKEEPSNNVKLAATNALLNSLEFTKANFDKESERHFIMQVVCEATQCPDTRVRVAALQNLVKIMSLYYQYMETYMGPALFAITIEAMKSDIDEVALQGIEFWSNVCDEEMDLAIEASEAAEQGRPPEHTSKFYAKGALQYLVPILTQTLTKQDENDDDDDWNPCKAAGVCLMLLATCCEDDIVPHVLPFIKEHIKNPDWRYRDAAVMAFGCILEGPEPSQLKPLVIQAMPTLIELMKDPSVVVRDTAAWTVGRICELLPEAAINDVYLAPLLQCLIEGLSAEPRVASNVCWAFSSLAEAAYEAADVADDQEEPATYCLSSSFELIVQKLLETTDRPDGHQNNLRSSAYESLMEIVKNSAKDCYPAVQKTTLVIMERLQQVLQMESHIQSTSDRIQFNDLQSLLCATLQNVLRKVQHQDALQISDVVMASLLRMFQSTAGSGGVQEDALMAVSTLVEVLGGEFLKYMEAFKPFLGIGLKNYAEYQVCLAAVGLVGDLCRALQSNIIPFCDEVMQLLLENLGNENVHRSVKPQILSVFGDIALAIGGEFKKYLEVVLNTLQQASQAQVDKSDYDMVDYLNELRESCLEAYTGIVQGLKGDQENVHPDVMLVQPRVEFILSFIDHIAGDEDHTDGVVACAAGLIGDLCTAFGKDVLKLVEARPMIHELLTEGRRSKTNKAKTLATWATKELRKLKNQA

[13] = molecular target: T13, HeLa cell extract proteins (Homo sapiens, UniProt Q96EY8)
T13 construct: endogenous in cells; host or cells: HeLa cell extract
T13 sequence (Q96EY8 33-250): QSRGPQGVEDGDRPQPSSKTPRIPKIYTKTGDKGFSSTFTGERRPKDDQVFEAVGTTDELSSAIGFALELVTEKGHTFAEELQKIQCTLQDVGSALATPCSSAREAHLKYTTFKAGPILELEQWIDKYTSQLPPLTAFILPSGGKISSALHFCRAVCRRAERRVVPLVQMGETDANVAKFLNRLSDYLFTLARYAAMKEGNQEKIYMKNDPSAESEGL

[14] = HeLa, protein GPI (CDNA FLJ56429, HIGHLY SIMILAR TO GLUCOSE-6-PHOSPHATE ISOMERASE.)
[15] = HeLa, protein CFL1 (COFILIN-1.)
[16] = HeLa, protein LGALS3BP (GALECTIN-3-BINDING PROTEIN PRECURSOR)

SMILES | fold changes relative to vehicle control ([1]; protein PSMA7, HeLa) | fold changes relative to vehicle control ([2]; captured protein IPO9, HeLa) | fold changes relative to vehicle control ([3]; HeLa, protein HNRNPH1) | fold changes relative to vehicle control ([4]; protein EZR, HeLa) | fold changes relative to vehicle control ([5]; protein LGALS3BP, HeLa) | fold changes relative to vehicle control [6, 14] [fold] | fold changes relative to vehicle control ([7]; protein ISOC1, HeLa) | fold changes relative to vehicle control ([8]; HeLa, protein COX4I1) | fold changes relative to vehicle control ([1]; HeLa, captured protein PSMA7) | fold changes relative to vehicle control ([2]; HeLa, protein IPO9) | fold changes relative to vehicle control ([3]; HeLa, captured protein HNRNPH1) | fold changes relative to vehicle control ([4]; HeLa, protein EZR) | fold changes relative to vehicle control [5, 16] | fold changes relative to vehicle control ([6]; HeLa, protein GPI) | fold changes relative to vehicle control ([7]; HeLa, captured protein ISOC1) | fold changes relative to vehicle control ([9]; HeLa, protein RPSA) | fold changes relative to vehicle control ([10]; HeLa, captured protein PCBD1) | fold changes relative to vehicle control ([11]; protein CFL1, HeLa) | fold changes relative to vehicle control ([12]; HeLa, protein KPNB1) | fold changes relative to vehicle control ([13]; HeLa, protein MMAB (COB)) | further results
Nc1nc2cccc(-c3ccccc3)c2n1Cc1ccc(Cl)c(Cl)c1 [compound 3] | 1.07 | 1.07 | 1 | 0.8 | 1.07 | 0.93 | 1.03 | 1 |  |  |  |  |  |  |  |  |  |  |  |  | fold changes relative to vehicle control ([9]; captured protein RPSA, HeLa): 1.09; fold changes relative to vehicle control ([10]; captured protein PCBD1, HeLa): 1.29; fold changes relative to vehicle control [11, 15]: 0.82 fold; fold changes relative to vehicle control ([12]; protein KPNB1, HeLa): 0.97; fold changes relative to vehicle control ([13]; HeLa, protein MMAB): 0.96
NCCOCCOCC(=O)Nc1nc2ncc(CNc3ccc(C(=O)NC(CCC(=O)O)C(=O)O)cc3)nc2c(=O)[nH]1 (stereo not drawn) [compound 6] |  |  |  |  |  |  |  | 1.04 | 1.02 | 1 | 0.84 | 1.16 | 1.02 | 1.23 | 1.11 | 0.97 | 1.58 | 0.89 | 1.13 | 0.51 | 
Nc1nc2[nH]cc(CCc3ccc(C(=O)N[C@@H](CCC(=O)O)C(=O)O)cc3)c2c(=O)[nH]1 [PTX, pemetrexed] |  |  |  |  |  |  |  |  |  |  |  |  |  |  |  |  |  |  |  |  | fold changes relative to vehicle control [1]: 1.03; fold changes relative to vehicle control [2]: 0.91; fold changes relative to vehicle control [3]: 0.86; fold changes relative to vehicle control [4]: 1; fold changes relative to vehicle control [5]: 1.13; fold changes relative to vehicle control [6]: 1.08; fold changes relative to vehicle control [7]: 0.99; fold changes relative to vehicle control [8]: 0.98; fold changes relative to vehicle control [9]: 0.9; fold changes relative to vehicle control [10]: 1.68; fold changes relative to vehicle control [11]: 0.79; fold changes relative to vehicle control [12]: 1.06; fold changes relative to vehicle control [13]: 0.85
Nc1nc2c(c(=O)[nH]1)N(C=O)C(CNc1ccc(C(=O)N[C@@H](CCC(=O)O)C(=O)O)cc1)CN2 (stereo partly drawn) [LEU, leucovorin] |  |  |  |  |  |  |  | 0.9 | 1.08 | 0.87 | 0.96 | 0.94 | 1.08 | 0.98 | 1.09 | 0.87 | 1.4 | 0.76 | 0.99 | 0.99 | 
CCCCCCOc1ccc(Cc2cnc(N)nc2N)cc1 [compound 1] | 1.13 | 0.89 | 0.96 | 1.23 | 0.97 | 1.37 | 1.08 | 1.03 |  |  |  |  |  |  |  |  |  |  |  |  | fold changes relative to vehicle control ([9]; captured protein RPSA, HeLa): 0.97; fold changes relative to vehicle control ([10]; captured protein PCBD1, HeLa): 1.01; fold changes relative to vehicle control [11, 15]: 1.27 fold; fold changes relative to vehicle control ([12]; protein KPNB1, HeLa): 1.09; fold changes relative to vehicle control ([13]; HeLa, protein MMAB): 0.95
NCCCNc1ccc(C(=O)NC(CCC(=O)O)C(=O)O)cc1 (stereo not drawn) [compound 7] |  |  |  |  |  |  |  | 1.17 | 0.93 | 0.94 | 0.92 | 0.92 | 1.09 | 0.96 | 1.04 | 0.84 | 1.48 | 0.69 | 0.89 | 0.94 | 

Reference: paper PMC6199744, “Development of Chemical Proteomics for the Folateome and Analysis of the Kinetoplastid Folateome” (ACS Infectious Diseases, 2018)
